# Assays:
# 5-lipoxygenase = target: T1, 5-lipoxygenase (Rattus norvegicus, UniProt P12527); assay: Inhibition of 5-lipoxygenase in rat basophilic leukemia cells (5-HETE and LTB4 formation from [14C]-arachidonic acid); assay type: cell-based; details: indomethacin 10 μM, A 23187, room temperature, 5 minutes, read-out: IC50 for inhibition of 5-lipoxygenase (I)
# T1 construct: endogenous in cells; host or cells: rat basophilic leukemia cells
# T1 sequence (P12527 1-673): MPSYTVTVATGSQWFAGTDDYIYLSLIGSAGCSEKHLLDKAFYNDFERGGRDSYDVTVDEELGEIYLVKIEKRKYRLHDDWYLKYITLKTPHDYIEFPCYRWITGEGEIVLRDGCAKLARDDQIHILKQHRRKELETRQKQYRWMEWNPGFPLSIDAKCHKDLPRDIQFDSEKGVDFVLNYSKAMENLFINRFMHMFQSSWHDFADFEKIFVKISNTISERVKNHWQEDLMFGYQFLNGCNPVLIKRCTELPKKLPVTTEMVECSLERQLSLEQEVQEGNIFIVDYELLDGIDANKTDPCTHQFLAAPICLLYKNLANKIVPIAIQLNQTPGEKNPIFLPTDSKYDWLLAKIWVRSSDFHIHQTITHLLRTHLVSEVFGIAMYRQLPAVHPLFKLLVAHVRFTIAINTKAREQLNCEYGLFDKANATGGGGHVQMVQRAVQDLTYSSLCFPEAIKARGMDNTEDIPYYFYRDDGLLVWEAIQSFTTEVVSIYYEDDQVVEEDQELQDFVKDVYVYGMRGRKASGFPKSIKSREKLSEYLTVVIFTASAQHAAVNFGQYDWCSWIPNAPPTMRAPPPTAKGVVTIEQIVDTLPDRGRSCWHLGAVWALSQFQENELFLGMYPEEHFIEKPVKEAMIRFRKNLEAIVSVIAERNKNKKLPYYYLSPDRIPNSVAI
# Description: To determine the inhibition of 5-lipoxygenase rat basophilic leukemia cells were cultured in vitro, and after a cell concentration of about 10^6 cells/ml had been obtained, the cells were harvested by centrifugation at 400 g. The precipitate was suspended in 50 mM potassium phosphate buffer of pH 7.4 at 1.5×10^7 cells/ml.
# To 1 ml each of this suspension there was added indomethacin (10 μM) and calcium chloride (2 mM) and then the mixture was incubated in presence or absence of a test compound with [^14 C]-arachidonic acid and the calcium ionophore A 23 187 [Chaney et al., J. Am. Chem. Soc. 96: 1932-3 (1974)] at room temperature for 5 minutes. The mixture was acidified to pH 5 and extracted with ethyl acetate to isolate the metabolites of arachidonic acid formed by the enzymatic action of 5-lipoxygenase. These were separated by thin layer chromatography using a solvent mixture known to be suitable for leukotriene analysis [c.f. Jakschik et al., Biochem. Biophys. Res. Commun. 102, 624 (1984)]. The distribution of the radioactivity among the different metabolites was measured with a Thin Layer Scanner (TLC linear analyzer). By bringing into relationship the percentages of the amount of 5-hydroxyeicosatetraenoic acid (5-HETE) and leukotriene B4 (LTB4) formed under the action of 5-lipoxygenase to the amount or the concentration, respectively, of the total radioactivity used and of the test compound of formula I the "IC50 -value I" (i.e. the concentration of the test compound which causes an 50%-inhibition of the 5-lipoxygenase) is determined.
# cyclooxygenase = target: T2, cyclooxygenase (Ovis aries, UniProt P05979); assay: Inhibition of cyclooxygenase in sheep seminal vesicle microsomes; assay type: biochemical; details: for Quotient IC50 II/IC50 I: cyclooxygenase IC50 (II) / 5-lipoxygenase IC50 (I); for IC50: sheep seminal vesicle microsomes, pH 7.5, 10 minutes, room temperature, read-out: IC50 for inhibition of cyclooxygenase (II)
# T2 construct: suspension of sheep seminal vesicle microsomes; from tissue; host or cells: sheep seminal vesicle microsomes
# T2 sequence (P05979 25-600): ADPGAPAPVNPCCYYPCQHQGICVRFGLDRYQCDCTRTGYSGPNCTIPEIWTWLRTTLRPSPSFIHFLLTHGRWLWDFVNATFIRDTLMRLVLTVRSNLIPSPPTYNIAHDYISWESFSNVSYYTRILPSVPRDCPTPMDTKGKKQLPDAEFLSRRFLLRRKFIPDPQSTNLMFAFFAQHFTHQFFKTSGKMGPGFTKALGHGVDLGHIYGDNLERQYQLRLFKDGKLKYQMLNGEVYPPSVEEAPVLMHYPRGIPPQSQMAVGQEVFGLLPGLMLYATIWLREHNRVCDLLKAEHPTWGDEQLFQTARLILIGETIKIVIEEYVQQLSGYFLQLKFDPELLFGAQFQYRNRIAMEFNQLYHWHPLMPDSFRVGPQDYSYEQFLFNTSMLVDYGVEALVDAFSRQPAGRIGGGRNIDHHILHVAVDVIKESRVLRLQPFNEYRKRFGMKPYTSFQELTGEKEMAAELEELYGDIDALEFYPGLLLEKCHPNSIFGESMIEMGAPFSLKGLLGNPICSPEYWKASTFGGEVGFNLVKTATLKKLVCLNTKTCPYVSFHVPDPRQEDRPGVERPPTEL
# Description: The effect of the test compounds on the activity of cyclooxygenase was tested usinfg a suspension of sheep seminal vesicle microsomes in 50 mM potassium phosphate buffer of pH 7.5 which was incubated for 10 minutes at room temperature with the test compound and [^14 C]-arachidonic acid. After acidification with glacial acetic acid the mixture was extracted with ethyl acetate and the residue obtained after evaporation of the extract separated by thin layer chromatography on plates precoated with silica gel using the solvent system ether/hexane/glacial acetic acid (50:50:1).
# Sprague-Dawley-rats [1] = assay: Inhibition of kaolin-induced paw oedema, test compound given intraperitoneally three hours after induction; assay type: in vivo; details: for % Inhibition (Maximum) of oedema: 3 h after kaolin, more than 100% = decrease below initial value
# Description: By subplantar injection of 0.1 ml of a kaolin suspension (100 mg/ml) into Sprague-Dawley-rats, an oedema is induced and the paw volume is measured plethysometrically every hour. Three hours after the induction of the oedema a suspension of the respective test compound in a 1% carboxymethylcellulose sodium solution (5 ml/kg body weight of the animal) is administered intraperitoneally. In table 2 the percentage of alteration in the paw volume due to the inhibition of the oedema by the test compound in relation to the volume determined immediately before the test compound was applied (i.e. the initial value) is shown. (FIGS. of more than 100% indicate a decrease in the volume of the oedema below the initial value): […]
# Sprague-Dawley-rats [2] = assay: Inhibition of kaolin-induced paw oedema, test compound injected in each paw simultaneously with kaolin; assay type: in vivo; details: 1 mg injected in each paw simultaneously with kaolin
# Description: By subplantar injection of 0.1 ml of a kaolin suspension (100 mg/ml) into Sprague-Dawley-rats, an oedema is induced and the paw volume is measured plethysometrically every hour. Three hours after the induction of the oedema a suspension of the respective test compound in a 1% carboxymethylcellulose sodium solution (5 ml/kg body weight of the animal) is administered intraperitoneally. In table 2 the percentage of alteration in the paw volume due to the inhibition of the oedema by the test compound in relation to the volume determined immediately before the test compound was applied (i.e. the initial value) is shown. (FIGS. of more than 100% indicate a decrease in the volume of the oedema below the initial value):
# In other experiments the test compound was administered simultaneously with the application of the kaolin suspension by injection of 1 mg of the test compound dissolved in 0.1 ml of a 1% carboxymethylcellulose sodium solution in each paw. The following maximum values of inhibition of the oedema or the formation of the oedema, respectively, were determined: […]
SMILES,IC50 (5-lipoxygenase) [nM],Quotient IC50 II/IC50 I (cyclooxygenase),IC50 (cyclooxygenase) [nM],Time after administration of the test compound (of maximum inhibition) (Sprague-Dawley-rats [1]; 100.0 mg/kg intraperitoneally) [h],% Inhibition (Maximum) of oedema (Sprague-Dawley-rats [1]; 100.0 mg/kg intraperitoneally) [%],% Inhibition (Maximum) of oedema (Sprague-Dawley-rats [2]) [%],Time after administration of the test compound (of maximum inhibition) (Sprague-Dawley-rats [2]) [h],Time after administration of the test compound (of maximum inhibition) (Sprague-Dawley-rats [1]; 46.4 mg/kg intraperitoneally) [h],% Inhibition (Maximum) of oedema (Sprague-Dawley-rats [1]; 46.4 mg/kg intraperitoneally) [%]
"Oc1ccc(C#CCCCCCCC#CC(O)c2ccccc2)cc1O (stereo not shown) [Example 15, 1-(3',4'-Dihydroxyphenyl)-11-hydroxy-11-phenyl-undeca-1,9-diyne]",320,> 320.0,> 100000,2,73,64,5,,
"Oc1ccc(/C=C\CCCCCC/C=C/C(O)C2CCCCC2)cc1O (stereo not shown) [Example 22d, 11-Cyclohexyl-1-(3',4'-dihydroxyphenyl)-11-hydroxy-undeca-1Z,9E-diene]",2800,64.3,180000,,,,,,
"Oc1ccc(C#CCCCCCC/C=C/C(O)C2CCCCC2)cc1O (stereo not shown) [Example 22c, 11-Cyclohexyl-1-(3',4'-dihydroxphenyl)-11-hydroxy-undec-9E-en-1-yne]",2900,44.8,130000,,,,,,
"COc1cc(C#CCCCCCCC#CCO)ccc1O [Example 5, 11-Hydroxy-1-(4'-hydroxy-3'-methoxyphenyl)-undeca-1,9-diyne]",,,,,,61,3,,
"CC(C)(O)C#CCCCCCCC#Cc1ccc(O)c(O)c1 [Example 13, 1-(3',4'-Dihydroxyphenyl)-11-hydroxy-11-methyl-dodeca-1,9-diyne]",350,88.6,31000,,,,,,

# Continued by falling IC50 (5-lipoxygenase), values first:
IC50 (5-lipoxygenase) [nM],Quotient IC50 II/IC50 I (cyclooxygenase),IC50 (cyclooxygenase) [nM],SMILES,Time after administration of the test compound (of maximum inhibition) (Sprague-Dawley-rats [1]; 100.0 mg/kg intraperitoneally) [h],% Inhibition (Maximum) of oedema (Sprague-Dawley-rats [1]; 100.0 mg/kg intraperitoneally) [%],% Inhibition (Maximum) of oedema (Sprague-Dawley-rats [2]) [%],Time after administration of the test compound (of maximum inhibition) (Sprague-Dawley-rats [2]) [h],Time after administration of the test compound (of maximum inhibition) (Sprague-Dawley-rats [1]; 46.4 mg/kg intraperitoneally) [h],% Inhibition (Maximum) of oedema (Sprague-Dawley-rats [1]; 46.4 mg/kg intraperitoneally) [%]
310,90.3,28000,"OC/C=C\CCCCCC/C=C\c1ccc(O)c(O)c1 [Example 9, 1-(3',4'-Dihydroxyphenyl)-11-hydroxy-undeca-1Z,9Z-diene]",,,,,,
280,132.1,37000,"Oc1ccc(C#CCCCCCCC#CC(O)C2CCCCC2)cc1O (stereo not shown) [Example 16, 11-Cyclohexyl-1-(3',4'-dihydroxyphenyl)-11-hydroxy-undeca-1,9-diyne]",1,54,45,7,,
210,119.1,25000,"CCCCCC(O)C#CCCCCCCC#Cc1ccc(O)c(O)c1 (stereo not shown) [Example 14, 1-(3',4'-Dihydroxyphenyl)-11-hydroxy-hexadeca-1,9-diyne]",2,127,46,2,1,68
150,253.3,38000,"OCC#CCCCCCCC#Cc1ccc(O)c(O)c1 [Example 7, 1-(3',4'-Dihydroxyphenyl)-11-hydroxy-undeca-1,9-diyne]",1,164,36,2,1,65
100,380.0,38000,"COc1cc(C#CCCCCCCC#CCO)cc(OC)c1O [Example 18, 1-(3',5'-Dimethoxy-4'-hydroxyphenyl)-11-hydroxy-undeca-1,9-diyne]",,,,,,
